One experiment deals with Cholinesterase (Homo sapiens, UniProt P06276).
Experiment [1] addresses T1, Acetylcholinesterase (Homo sapiens, UniProt P22303).
Description: Inhibition of human recombinant AChE after 5 mins using spectrophotometer by Ellman's method
The target of experiment [2] is T1, Acetylcholinesterase. The experiment is described as follows: Ratio of Tacrine IC50 to compound IC50 for human recombinant AChE.
For experiment [3], the target named is T1, Acetylcholinesterase. The experiment is described as follows: Ratio of 7-MEOTA IC50 to compound IC50 for human recombinant AChE.

T1 sequence (P22303 whole entry): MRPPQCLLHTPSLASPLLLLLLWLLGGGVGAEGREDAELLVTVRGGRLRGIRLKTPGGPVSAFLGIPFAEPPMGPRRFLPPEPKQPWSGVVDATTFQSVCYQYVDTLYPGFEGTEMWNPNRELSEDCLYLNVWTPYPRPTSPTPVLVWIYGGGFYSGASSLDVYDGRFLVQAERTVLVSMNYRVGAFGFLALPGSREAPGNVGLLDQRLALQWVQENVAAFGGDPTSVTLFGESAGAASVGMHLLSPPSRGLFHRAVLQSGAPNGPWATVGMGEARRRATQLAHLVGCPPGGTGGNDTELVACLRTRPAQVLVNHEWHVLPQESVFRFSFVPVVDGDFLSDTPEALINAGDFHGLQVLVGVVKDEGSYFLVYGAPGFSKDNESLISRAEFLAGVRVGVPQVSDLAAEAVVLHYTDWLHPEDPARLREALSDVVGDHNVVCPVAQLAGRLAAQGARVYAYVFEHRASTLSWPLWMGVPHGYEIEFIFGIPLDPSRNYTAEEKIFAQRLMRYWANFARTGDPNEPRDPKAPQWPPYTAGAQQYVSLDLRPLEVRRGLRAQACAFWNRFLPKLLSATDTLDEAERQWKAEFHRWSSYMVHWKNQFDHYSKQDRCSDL
Chain of Cholinesterase (P06276 whole entry): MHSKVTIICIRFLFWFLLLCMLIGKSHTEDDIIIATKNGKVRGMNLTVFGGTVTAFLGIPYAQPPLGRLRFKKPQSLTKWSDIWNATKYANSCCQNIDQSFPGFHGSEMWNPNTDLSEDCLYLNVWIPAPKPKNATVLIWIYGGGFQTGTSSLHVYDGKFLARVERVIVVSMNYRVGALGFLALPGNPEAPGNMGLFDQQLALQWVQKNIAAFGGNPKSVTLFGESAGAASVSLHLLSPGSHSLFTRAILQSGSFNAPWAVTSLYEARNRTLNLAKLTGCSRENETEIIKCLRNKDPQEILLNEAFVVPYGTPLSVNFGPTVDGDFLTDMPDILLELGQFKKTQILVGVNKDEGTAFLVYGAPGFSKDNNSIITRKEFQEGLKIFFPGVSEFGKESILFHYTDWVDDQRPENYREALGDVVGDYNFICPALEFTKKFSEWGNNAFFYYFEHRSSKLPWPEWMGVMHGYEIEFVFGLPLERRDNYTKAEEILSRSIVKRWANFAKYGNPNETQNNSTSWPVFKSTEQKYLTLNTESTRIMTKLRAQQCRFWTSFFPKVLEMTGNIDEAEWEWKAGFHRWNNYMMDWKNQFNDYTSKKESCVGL

With `COc1ccc2nc3c(c(N4CCCCCN(c5c6c(nc7ccc(OC)cc57)CCCC6)CCCCC4)c2c1)CCCC3`, the values for the 50% inhibitory concentration (IC50) against Cholinesterase and at Acetylcholinesterase [1] were 656 µM and 4.6 µM, respectively.
For the compound `C=CCCCNc1c2c(nc3ccc(OC)cc13)CCCC2`, the Ratio IC50 on Acetylcholinesterase [2] is 10; at Acetylcholinesterase [3], 5. The IC50 (in general, the concentration needed to halve the response being measured) is 1.1 µM against Cholinesterase and 2.2 µM at Acetylcholinesterase [1].

For the origin of these results see ChEMBL document CHEMBL1914376, “Synthesis and in vitro evaluation of 7-methoxy-N-(pent-4-enyl)-1,2,3,4-tetrahydroacridin-9-amine-new tacrine derivate with cholinergic properties” (Bioorg Med Chem Lett, 2011).
